The text below walks through data of PubChem BioAssay AID651642 (Sanford-Burnham Center for Chemical Genomics, 2012).

One assay deals with HL-1. Put plainly: cardiomyocyte survival under oxidative or metabolic stress – cell-based, panel, H9c2 and HL-1, H2O2, 2-deoxyglucose, ATP luminescence, SAR follow-up (AID 651642).
The subject of a further assay is H9c2. The description is as above.
The mark [1] stands for this setting: H9c2/HL-1 cardiomyocyte 2-deoxyglucose damage, mean of runs, with 2-deoxyglucose, mean IC50 across panel.
Where [2] appears, read: H9c2/HL-1 cardiomyocyte 2-deoxyglucose damage, run 1, with 2-deoxyglucose.
The mark [3] stands for this setting: H9c2/HL-1 cardiomyocyte 2-deoxyglucose damage, run 2, with 2-deoxyglucose.
[4] abbreviates: H9c2/HL-1 cardiomyocyte 2-deoxyglucose damage, run 3, with 2-deoxyglucose.
Setting [5] is: H9c2/HL-1 cardiomyocyte 2-deoxyglucose damage, run 4, with 2-deoxyglucose.
Setting [6] is: H9c2/HL-1 cardiomyocyte H2O2 oxidative damage, mean of runs, with H2O2, mean IC50 across panel.
The mark [7] stands for this setting: H9c2/HL-1 cardiomyocyte H2O2 oxidative damage, run 1, with H2O2.
[8] abbreviates: H9c2/HL-1 cardiomyocyte H2O2 oxidative damage, run 2, with H2O2.
Setting [9] is: H9c2/HL-1 cardiomyocyte H2O2 oxidative damage, run 3, with H2O2.
Where [10] appears, read: H9c2/HL-1 cardiomyocyte H2O2 oxidative damage, run 4, with H2O2.

For orientation: IC50 means the concentration that inhibits the measured activity by half.

Some results are limits rather than exact numbers.

Regarding `COc1cc(-c2cc(C(=O)NCC(=O)Nc3cccc(C(C)=O)c3)c3cc(C)ccc3n2)cc(OC)c1OC`, the concentration for half-maximal inhibition (IC50) in the assay with HL-1 (setting [1]) came out at 23 µM; in the assay on HL-1 (setting [2]), 13.6 µM; in the assay with HL-1 (setting [3]), 14.8 µM; in the assay on HL-1 (setting [4]) it was 29.8 µM; with HL-1 (setting [5]), 33.9 µM; in the assay with HL-1 (setting [6]) it was 36.9 µM. Further, the IC50 in the assay with HL-1 (setting [7]) was 34.9 µM; in the assay on HL-1 (setting [8]), 44.3 µM; in the assay with HL-1 (setting [9]), 25.5 µM; with HL-1 (setting [10]), 43.1 µM; in the assay on H9c2 (setting [2]) it was greater than 79 µM; in the assay with H9c2 (setting [3]) it was greater than 79 µM. The IC50 with H9c2 (setting [4]) came out at 19.9 µM; in the assay with H9c2 (setting [5]), 24.4 µM; with H9c2 (setting [6]), 10.1 µM; in the assay with H9c2 (setting [7]), 12.5 µM; in the assay with H9c2 (setting [8]), 13.5 µM; in the assay on H9c2 (setting [9]) it was 5.91 µM. Further, the IC50 with H9c2 (setting [10]) came out at 8.51 µM.
Take `CCOC(=O)c1cccc(NC(=O)CNC(=O)c2cc(-c3cc(OC)c(OC)c(OC)c3)nc3ccc(Br)cc23)c1`: the half-maximal inhibitory concentration (IC50) is 1.87 µM in the assay on HL-1 (setting [1]); 1.25 µM with HL-1 (setting [2]); 1.42 µM with HL-1 (setting [3]); 1.96 µM in the assay on HL-1 (setting [4]); 2.86 µM in the assay with HL-1 (setting [5]); 2.04 µM with HL-1 (setting [6]). The IC50 in the assay on HL-1 (setting [7]) was determined as 2.32 µM; in the assay on HL-1 (setting [8]) it was 2.54 µM; in the assay with HL-1 (setting [9]), 1.26 µM; with HL-1 (setting [10]) it was 2.05 µM; in the assay on H9c2 (setting [1]) it was 4.52 µM; in the assay on H9c2 (setting [2]), 4.66 µM. In addition, the IC50 in the assay on H9c2 (setting [3]) turned out to be 6.47 µM; in the assay with H9c2 (setting [4]), 3.26 µM; in the assay on H9c2 (setting [5]) it was 3.71 µM; in the assay with H9c2 (setting [6]) it was 1.34 µM; in the assay with H9c2 (setting [7]), 1.44 µM; with H9c2 (setting [8]) it was 1.74 µM. Further, the IC50 with H9c2 (setting [9]) turned out to be 0.953 µM; in the assay on H9c2 (setting [10]), 1.24 µM.
Regarding `COc1cccc(CNC(=O)CNC(=O)c2cc(-c3cc(OC)c(OC)c(OC)c3)nc3ccccc23)c1`, the 50% inhibitory concentration (IC50) in the assay on HL-1 (setting [1]) was 15.2 µM; with HL-1 (setting [2]), 9.87 µM; in the assay on HL-1 (setting [3]), 10.8 µM; in the assay with HL-1 (setting [4]) it was 17.7 µM; in the assay on HL-1 (setting [5]), 22.6 µM; in the assay on HL-1 (setting [7]) it was greater than 79 µM. Moreover, the 50% inhibitory concentration (IC50) is 13.1 µM in the assay on HL-1 (setting [8]); 6.25 µM in the assay on HL-1 (setting [9]); 7.97 µM in the assay on HL-1 (setting [10]); 38.6 µM with H9c2 (setting [2]); 40.8 µM in the assay on H9c2 (setting [3]); greater than 79 µM in the assay on H9c2 (setting [4]). In addition, the IC50 is greater than 79 µM with H9c2 (setting [5]); 5.76 µM in the assay with H9c2 (setting [6]); 5.74 µM in the assay on H9c2 (setting [7]); 7.73 µM in the assay with H9c2 (setting [8]); 4.38 µM in the assay with H9c2 (setting [9]); 5.17 µM with H9c2 (setting [10]).
Turning to `CCOC(=O)c1cccc(NC(=O)c2cc(-c3cc(OC)c(OC)c(OC)c3)nc3ccc(Br)cc23)c1`, the IC50 in the assay with HL-1 (setting [1]), in the assay with HL-1 (setting [2]), in the assay on HL-1 (setting [3]), in the assay with HL-1 (setting [4]), with HL-1 (setting [5]) and with HL-1 (setting [7]) was greater than 79 µM in each case. In addition, the half-maximal inhibitory concentration (IC50) in the assay on HL-1 (setting [8]) was greater than 79 µM; in the assay with HL-1 (setting [9]), greater than 79 µM; in the assay on HL-1 (setting [10]), 4.69 µM; with H9c2 (setting [1]), greater than 79 µM; in the assay on H9c2 (setting [2]) it was greater than 79 µM; in the assay with H9c2 (setting [3]), greater than 79 µM. Besides, the half-inhibitory concentration (IC50) was greater than 79 µM in the assay on H9c2 (setting [4]); greater than 79 µM in the assay with H9c2 (setting [5]); 2.86 µM in the assay with H9c2 (setting [7]); 3.15 µM in the assay on H9c2 (setting [8]); greater than 79 µM in the assay with H9c2 (setting [9]); greater than 79 µM in the assay with H9c2 (setting [10]).
Turning to `CCOC(=O)c1ccc(NC(=O)c2cc(-c3cc(OC)c(OC)c(OC)c3)nc3ccccc23)cc1`, the half-inhibitory concentration (IC50) in the assay on HL-1 (setting [1]), with HL-1 (setting [2]), in the assay with HL-1 (setting [3]), in the assay on HL-1 (setting [4]), in the assay on HL-1 (setting [5]) and in the assay with HL-1 (setting [6]) was greater than 79 µM in each case. The IC50 with HL-1 (setting [7]), with HL-1 (setting [8]), in the assay on HL-1 (setting [9]), with HL-1 (setting [10]), in the assay with H9c2 (setting [1]) and with H9c2 (setting [2]) was greater than 79 µM in each case. The IC50 in the assay with H9c2 (setting [3]) was greater than 79 µM; with H9c2 (setting [4]), greater than 79 µM; with H9c2 (setting [5]), greater than 79 µM; with H9c2 (setting [7]), greater than 79 µM; in the assay on H9c2 (setting [8]), 21.5 µM; in the assay with H9c2 (setting [9]) it was greater than 79 µM. The same compound yielded an IC50 in the assay on H9c2 (setting [10]) greater than 79 µM.
For the compound `CCNC(=O)c1cccc(NC(=O)c2cc(-c3cc(OC)c(OC)c(OC)c3)nc3ccccc23)c1`, the IC50 in the assay on HL-1 (setting [1]) turned out to be 9.33 µM; in the assay on HL-1 (setting [2]), 5.11 µM; in the assay with HL-1 (setting [3]) it was 6.24 µM; in the assay with HL-1 (setting [4]), 13 µM; in the assay with HL-1 (setting [5]), 13 µM; in the assay with HL-1 (setting [6]), 6.69 µM. Besides, the concentration for half-maximal inhibition (IC50) in the assay with HL-1 (setting [7]) came out at 3.81 µM; with HL-1 (setting [8]), 11.5 µM; in the assay with HL-1 (setting [9]), 3.71 µM; in the assay with HL-1 (setting [10]), 7.74 µM; with H9c2 (setting [1]) it was 22.2 µM; in the assay on H9c2 (setting [2]), 21.3 µM. For the same compound, the half-maximal inhibitory concentration (IC50) in the assay with H9c2 (setting [3]) was determined as 22.2 µM; with H9c2 (setting [4]), 22.4 µM; in the assay with H9c2 (setting [5]) it was 22.8 µM; with H9c2 (setting [6]), 4 µM; in the assay with H9c2 (setting [7]), 4.85 µM; in the assay with H9c2 (setting [8]), 4.86 µM. Besides, the IC50 in the assay on H9c2 (setting [9]) is 2.88 µM; with H9c2 (setting [10]), 3.41 µM.
